Results reported in patent US20160136123A1, “TREATMENT OF AUTOPHAGY-RELATED DISORDERS” (STC.UNM, priority 2013, published 2016).

Experiments:
[1] = system: HeLa cells stably expressing mRFP-GFP-LC3B; test: TRIM family screen control: GFP-LC3B puncta area after pp242; format: cell-based, Human; conditions: pp242 for 2 h, versus vehicle
Source text: Referring to FIG. 1A/A HeLa cells stably expressing mRFP-GFP-LC3B were subjected to TRIM knockdowns, treated with pp242, and imaged to detect nuclear stain (blue) and GFP signal (green). Top, non-targeting siRNA-transfected cells treated with carrier (DMSO) or pp242. White lines, cell borders. Red, LC3B puncta borders. Bottom, representative images of cells subjected to knockdown of TRIM45 and TRIM2, both treated with pp242. (B) Measurement of average area of GFP-LC3B area per cell from cells treated as in (A) (data from multiple 96-well plates with identical siRNA arrangements represent means and ±SE).
Cells were exposed to virus at 4° C. for 1 hour to allow binding but not entry. […] Samples were prepared for analysis of p24, reverse transcriptase, or proviral DNA. […] HIV-1 RT was determined according to the manufacturer's protocol (Enz Chek, Invitrogen). HIV-1 proviral DNA was quantified as previously described (Campbell et al., 2004). […]
HeLa cells stably expressing mRFP-GFP-LC3B were cultured in 96-well plates containing siRNAs against 67 human TRIMs and transfection reagent (Dharmacon). […] Automated image collection of >500 cells (distributed over 49 or fewer fields per well per siRNA knockdown per plate) were machine-analyzed using preset scanning parameters and object mask definition (iDEV software). […] When results were expressed as puncta area per cell, the units corresponded to μm^2/cell.

[2] = system: HeLa cells stably expressing mRFP-GFP-LC3; test: High content imaging of LC3 puncta after oleic acid pretreatment; format: cell-based, Human; conditions: 500 μM BSA-oleic acid 20 h, then full medium or EBSS starvation 90 min
Description: Panals (A) and (B): HeLa cells stably expressing mRFP-GFP-LC3 were treated for 20 h with BSA alone (BSA) or with BSA-oleic acid (OA; 500 μM OA) and then starved in EBSS for 90 min (Starv) or incubated in full medium (Full). A, Visualization of lipid droplet accumulation. Cells were treated as in A and lipid droplets stained with Bodipy 493/503. B, High content image analysis. Program (iDev)-assigned masks: blue outline, valid primary objects (cells); green mask, GFP puncta. (C) number of GFP+ puncta per cell from experiments illustrated in A. (D) RFP+ puncta per cell from experiments illustrated in A. High content analysis data: means±s.e. (n=3, where n represents separate experiments; each experimental point in separate experiments contained >500 cells identified by the program as valid primary objects); *, p<0.05 (t-test). (E) HeLa cells were treated with 0, 100, 500 or 1000 μM oleic acid (OA) using BSA as a carrier (BSA-OA) for 20 h, followed by 90 min starvation in EBSS with or without Bafilomycin A1 (BafA1), and LC3-II/actin ratios determined by immunoblotting and densitometry. (F) HeLa cells were treated for 20 h with BSA alone or with BSA-OA (500 μM OA), followed by starvation in EBSS for 90 min with or without Bafilomycin A1 (BafA1) and LC3-II/actin ratios determined by immunoblotting and densitometry. Immunobloting data: means means±s.e., *, p<0.05 (t-test). […]

HeLa cells = test: LC3-II conversion immunoblot (LC3-II/actin) with or without bafilomycin A1 after oleic acid pretreatment and starvation; format: cell-based, Human
Description: Panals (A) and (B): HeLa cells stably expressing mRFP-GFP-LC3 were treated for 20 h with BSA alone (BSA) or with BSA-oleic acid (OA; 500 μM OA) and then starved in EBSS for 90 min (Starv) or incubated in full medium (Full). A, Visualization of lipid droplet accumulation. Cells were treated as in A and lipid droplets stained with Bodipy 493/503. B, High content image analysis. Program (iDev)-assigned masks: blue outline, valid primary objects (cells); green mask, GFP puncta. (C) number of GFP+ puncta per cell from experiments illustrated in A. (D) RFP+ puncta per cell from experiments illustrated in A. High content analysis data: means±s.e. (n=3, where n represents separate experiments; each experimental point in separate experiments contained >500 cells identified by the program as valid primary objects); *, p<0.05 (t-test). (E) HeLa cells were treated with 0, 100, 500 or 1000 μM oleic acid (OA) using BSA as a carrier (BSA-OA) for 20 h, followed by 90 min starvation in EBSS with or without Bafilomycin A1 (BafA1), and LC3-II/actin ratios determined by immunoblotting and densitometry. (F) HeLa cells were treated for 20 h with BSA alone or with BSA-OA (500 μM OA), followed by starvation in EBSS for 90 min with or without Bafilomycin A1 (BafA1) and LC3-II/actin ratios determined by immunoblotting and densitometry. Immunobloting data: means means±s.e., *, p<0.05 (t-test).
Addition of oleic acid (OA) is commonly used to increase cellular LD content. […] The enhancement was detected at both autophagy initiation stage (FIG. 1C; GFP-LC3) and autophagosomal maturation (FIG. 1D; mRFP-GFP), as determined by the acidification-sensitive GFP and acidification-insenstive mRFP probes used to distinguish early autophagosomes and autolysosomes, respectively. […]
Antibodies against endogenous proteins LC3 (MBL), P62 (BD Transduction), Atg16L1 (Cosmo Bio) were used for indirect immunofluorescence analysis. […] SlideBook morphometric analysis software 5.0 (Intelligent Imaging Innovations) was used to quantify the colocalization between Atg16L1 or DAG and lipid droplets. […]

autophagic maturation = conditions: e.g. 1 mM, reference [27]; cited from earlier work
[3] = system: 293T cells and HeLa cells; test: TRIM5α overexpression: LC3-II abundance (bafilomycin A1 flux assay) and LC3 puncta by high content analysis; format: cell-based, Human; conditions: GFP-tagged protein overexpressed, compared with GFP alone; with or without bafilomycin A1
Source text: FIG. 2A/A illustrates mapping of the p62/Sequestosome 1 region interacting with RhTRIM5α. Schematic (left): domain organization of p62 and deletion/point mutation constructs employed to analyze interactions with RhTRIM5α (right panel). TR, TRIM5α and TRAF6 binding region; NLS, nuclear localization signal; NES, nuclear export signal; LIR, LC3-interacting region; KIR, KEAP1-interacting region. Analysis (right): Myc-RhTRIM5α was radiolabeled with [^35S] methionine by in vitro translation and analyzed by GST pulldown assays with GST-p62 fusion proteins. Top, autoradiogram. Bottom, Coomassie Brilliant Blue (CBB)-stained SDS-polyacrylamide gel with GST-p62 proteins. (B) Effects of TRIM5α knockdown in HeLa cells on GFP-LC3 puncta (area/cell) under basal (DMSO control) and autophagy-inducing (pp242) conditions. HuT5a, human TRIM5α; Scr, Scrambled control. […]
We first tested p62 and TRIM5α interaction (FIG. S2A) and co-localization (FIG. S2B), and mapped the TRIM5α-binding domain on p62 to the region demarcated by residues 170-256 (FIG. 2A). […] When TRIM5α was knocked down, fewer LC3 puncta were detected ([…]) and LC3-II yields (FIG. 2A/B,C) upon induction with pp242 were reduced. […] In these experiments, high content analysis was used to differentiate GFP-TRIM5α-transfected or GFP-transfected cells from untransfected cells based on their green fluorescence. […]

Question: For `CC(C)n1nc(-c2cc3cc(O)ccc3[nH]2)c2c(N)ncnc21` [pp242], which “induction of GFP-LC3B puncta area” value [1] is on record?
Answer: 17 fold

Question: For `CCCCCCCC/C=C\CCCCCCCC(=O)O` [OA, oleic acid], which “effect of increase in lipid droplets following OA pretreatment on autophagy (GFP+ and RFP+ LC3 puncta per cell)” value [2] is on record?
Answer: enhanced basal and induced autophagy

Question: And the “OA concentration optimal for enhancing starvation-induced autophagy (LC3-II/actin titration)” value (HeLa cells; 0, 100, 500 or 1000 μM OA 20 h, 90 min starvation in EBSS with or without bafilomycin A1)?
Answer: 500 µM

Question: What about the “effect of OA pretreatment in the bafilomycin A1 inhibition assay (LC3-II/actin)” value (HeLa cells; 500 μM BSA-OA 20 h, EBSS 90 min with or without bafilomycin A1) of the same compound?
Answer: enhanced cellular capacity for initiation of autophagy upon starvation

Question: What about the “effect of 1 mM OA on starvation-induced autophagy (LC3-II/actin titration)” value (HeLa cells; 1 mM OA 20 h, 90 min starvation in EBSS) of the same compound?
Answer: either a plateau or potentially inhibitory effects on autophagy

Question: What about the “effect of high concentrations of OA on autophagic maturation” value (autophagic maturation) of the same compound?
Answer: inhibitory to autophagic maturation

Question: With “C15A mutant of RhTRIIVI5α: catalytically inactive (E3 ligase) C15A mutant of rhesus TRIM5α” as the compound, how does the “effect of TRIM5α overexpression on autophagy (LC3-II, LC3 puncta)” value [3] read?
Answer: induced autophagy comparably to wt RhTRIM5α
